US10654853B2, “Spiro-condensed pyrrolidine derivatives as deubiquitylating enzymes (DUB) inhibitors” (MISSION THERAPEUTICS LIMITED, priority 2016, dated 2020)

Molecular target: Cezanne 1 (Homo sapiens (Human), UniProt Q6GQQ9)
Experiment: Cezanne 1 biochemical IC50 assay (fluorescence polarisation, TAMRA labelled peptide linked to ubiquitin)
Settings: Cezanne 1 biochemical IC50 assay; 30 min pre-incubation, read after 2 hr at room temperature; read-out: IC50 range
Method in brief: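 FLAG-tagged Cezanne 1, expressed in HEK293T and FLAG-purified, was preincubated with compound for 30 min at room temperature in Tris pH 7.5 buffer with Tween 20, BSA and β-mercaptoethanol. Reactions were started with 50 nM TAMRA-peptide isopeptide-linked to ubiquitin. Fluorescence polarisation (ex 540/em 590 nm) was read immediately and after 2 h.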

Chain of Cezanne 1 (Q6GQQ9 whole entry): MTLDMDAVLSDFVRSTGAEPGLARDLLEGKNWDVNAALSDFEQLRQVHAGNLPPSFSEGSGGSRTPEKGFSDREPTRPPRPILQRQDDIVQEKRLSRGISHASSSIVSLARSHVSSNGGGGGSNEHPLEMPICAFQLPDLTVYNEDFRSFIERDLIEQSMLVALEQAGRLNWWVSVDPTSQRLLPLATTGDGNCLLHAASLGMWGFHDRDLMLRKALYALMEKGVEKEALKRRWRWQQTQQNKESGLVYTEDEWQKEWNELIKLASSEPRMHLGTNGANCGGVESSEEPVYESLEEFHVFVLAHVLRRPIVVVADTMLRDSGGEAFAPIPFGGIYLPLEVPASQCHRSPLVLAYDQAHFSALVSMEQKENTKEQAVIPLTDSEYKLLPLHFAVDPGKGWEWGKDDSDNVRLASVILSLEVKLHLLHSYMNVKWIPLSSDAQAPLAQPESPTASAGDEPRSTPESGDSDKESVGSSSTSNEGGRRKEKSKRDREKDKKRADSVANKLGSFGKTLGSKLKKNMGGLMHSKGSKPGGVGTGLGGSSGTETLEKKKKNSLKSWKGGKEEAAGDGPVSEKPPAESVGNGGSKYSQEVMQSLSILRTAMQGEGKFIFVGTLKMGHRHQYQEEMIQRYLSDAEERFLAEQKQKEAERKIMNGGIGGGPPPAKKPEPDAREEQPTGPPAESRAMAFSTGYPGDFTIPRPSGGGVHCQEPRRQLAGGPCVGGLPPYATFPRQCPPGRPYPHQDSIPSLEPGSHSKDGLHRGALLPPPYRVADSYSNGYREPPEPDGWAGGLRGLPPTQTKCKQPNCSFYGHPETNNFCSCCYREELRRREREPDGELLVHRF

`N#Cc1ccc(-c2cnc3c(c2)NC(=O)C2(CCN(C#N)C2)N3)cc1` (stereo not shown) [Example 58, 7-(4-Cyanophenyl)-2-oxo-1,4-dihydro-2H-spiro[pyrido[2,3-b]pyrazine-3,3′-pyrrolidine]-1′-carbonitrile] was tested, and the IC50 was 0.1 to 1 µM.
In the case of `N#CN1CCC2(C1)Oc1nc(-c3ccccc3)ccc1NC2=O` (stereo not shown) [Example 54, 2-Oxo-6-phenyl-1,2-dihydrospiro[pyrido[2,3-b][1,4]oxazine-3,3′-pyrrolidine]-1′-carbonitrile], the IC50 is reported as 0.1 to 1 µM.
Compound `Cc1noc(C)c1-c1ccc2c(c1)CC1(CCN(C#N)C1)C(=O)N2` (stereo not shown) [Example 124, 6′-(3,5-Dimethylisoxazol-4-yl)-2′-oxo-1′,4′-dihydro-2′H-spiro[pyrrolidine-3,3′-quinoline]-1-carbonitrile] has an IC50 of 0.1 to 1 µM.
Work on `N#CN1CCC2(Cc3cc(-c4cccc(S(=O)(=O)N5CCOCC5)c4)ccc3NC2=O)C1` (stereo not shown) [Example 121, 6′-(3-(Morpholinosulfonyl)phenyl)-2′-oxo-1′,4′-dihydro-2′H-spiro[pyrrolidine-3,3′-quinoline]-1-carbonitrile] yielded an IC50 of 0.1 to 1 µM.
In the case of `N#CN1CC[C@@]2(C1)Oc1ncc(-c3cccc(F)c3)cc1NC2=O` [Example 69, (S)-7-(3-Fluorophenyl)-2-oxo-1,2-dihydrospiro[pyrido[2,3-b][1,4]oxazine-3,3′-pyrrolidine]-1′-carbonitrile], the IC50 is reported as 0.1 to 1 µM.
Compound `N#CN1CCC2(Cc3cc(-c4ccc(Oc5ccccc5)cc4)ccc3NC2=O)C1` (stereo not shown) [Example 96, 2′-Oxo-6′-(4-phenoxyphenyl)-1′,4′-dihydro-2′H-spiro[pyrrolidine-3,3′-quinoline]-1-carbonitrile] has an IC50 of 1 to 10 µM.
`CC1(c2ccccc2)NC(=O)C2(CCN(C#N)C2)NC1=O` (stereo not shown) [Example 87, 8-Methyl-7,10-dioxo-8-phenyl-2,6,9-triazaspiro[4.5]decane-2-carbonitrile] gave an IC50 of 0.1 to 1 µM.
`N#CN1CCC2(C1)Nc1ncc(-c3cccc(F)c3)cc1NC2=O` (stereo not shown) [Example 60, 7-(3-Fluorophenyl)-2-oxo-1,4-dihydro-2H-spiro[pyrido[2,3-b]pyrazine-3,3′-pyrrolidine]-1′-carbonitrile] was tested, and the IC50 was 0.1 to 1 µM.
`N#CN1CC[C@@]2(C1)Nc1ncc(-c3ccccc3)cc1NC2=O` [Example 68, (S)-2-Oxo-7-phenyl-1,4-dihydro-2H-spiro[pyrido[2,3-b]pyrazine-3,3′-pyrrolidine]-1′-carbonitrile] showed an IC50 of 0.1 to 1 µM.
`N#CN1CCC2(Cc3cc(-c4ccccc4)ccc3NC2=O)C1` (stereo not shown) [Example 41, 2′-Oxo-6′-phenyl-1′,4′-dehydro-2′H-spiro[pyrrolidine-3,3′-quinoline]-1-carbonitrile] was tested, and the IC50 was 0.1 to 1 µM.
Work on `CC(=O)Nc1cccc(-c2ccc3c(c2)NC(=O)C2(CCN(C#N)C2)C3)c1` (stereo not shown) [Example 29, N-(3-(1-Cyano-2′-oxo-1′,4′-dihydro-2′H-spiro[pyrrolidine-3,3′-quinolin]-7′-yl)phenyl)acetamide] yielded an IC50 of 1 to 10 µM.
Compound `N#CN1CC[C@]2(Cc3cc(-c4ccccc4)ccc3NC2=O)C1` [Example 67, (R)-2′-Oxo-6′-phenyl-1′,4′-dihydro-2′H-spiro[pyrrolidine-3,3′-quinoline]-1-carbonitrile] has an IC50 of 0.1 to 1 µM.
`N#CN1CCC2(CC(c3ccccc3)NC2=O)C1` (single isomer, unassigned) [Example 84, 6-Oxo-8-phenyl-2,7-diazaspiro[4.4]nonane-2-carbonitrile] gave an IC50 greater than 10 µM.
`CC1CC2(CCN(C#N)C2)C(=O)N1` (single isomer, unassigned) [Example 82, 8-Methyl-6-oxo-2,7-diazaspiro[4.4]nonane-2-carbonitrile] was tested, and the IC50 was greater than 10 µM.
Work on `N#CN1CCC2(C1)Oc1ncc(-c3cccc4c3cnn4CCO)cc1NC2=O` (stereo not shown) [Example 137, 7-(1-(2-Hydroxyethyl)-1H-indazol-4-yl)-2-oxo-1,2-dihydrospiro[pyrido[2,3-b][1,4]oxazine-3,3′-pyrrolidine]-1′-carbonitrile] yielded an IC50 of less than 0.1 µM.
Work on `N#CN1CCC2(C1)Nc1ncc(-c3ccccc3)cc1NC2=O` (stereo not shown) [Example 57, 2-Oxo-7-phenyl-1,4-dihydro-2H-spiro[pyrido[2,3-b]pyrazine-3,3′-pyrrolidine]-1′-carbonitrile] yielded an IC50 of 0.1 to 1 µM.
